Results as given in patent US4347319A, “Microbiological epoxidation process” (priority 1980, dated 1982).
Read-outs that look alike come from different tables or passages of the source.

Tests used:
Type in all cases: cell-based
[1] = system: Methylococcus capsulatus (CRL M1) NRRL B-11,219; test: Oxidation by washed cell suspensions of methane-grown cells
Description: (§1) The pH of the nutrient medium was adjusted to 7.0 by the addition of acid or base and 50 ml samples of the nutrient medium were charged into a plurality of 300 ml shaker flasks. The shaker flasks were inoculated with an inoculating loop of cells from an agar plate containing homogeneous colonies of the microorganisms on the plate (the purity of the isolates was confirmed by microscopic examination. The isolates had been maintained on agar plates under an atmosphere of methane and air having a 1:1 v/v gas ratio which had been transferred evey two weeks. The gaseous phase of the inoculated flasks was then replaced with a gas mixture comprised of methane and air having a ratio of 1:1 on a v/v basis. The inoculated flasks were sealed air tight and were incubated on a rotary shaker of orbital radius 2.5 cm at 250 rpm and at 30° C. for two days until turbidity in the medium had developed.
(§2) The cells were harvested by centrifugation at 10,000×g. at 4° C. for 30 minutes. The cell pellet was washed twice with a 0.15 M phosphate buffer at a pH of 7.0 (containing 0.002 M MgCl2). The washed cells were then suspended in a 0.15 M phosphate buffer at pH 7.0.
(§3) A 0.5 ml sample of each washed cell suspension (2 mg cells) was put into 10 ml vials at 4° C. which were sealed with a rubber cap. The gaseous phase of the vials was removed with vacuum and then was replaced with a gas mixture of the oxidative substrate (e.g., methane) and oxygen at a 1:1 v/v ratio. The vials were then incubated at 30 ° C. on a rotary shaker at 300 rpm. Samples of product (3 μl) were withdrawn periodically with a microsyringe and the products were analyzed by gas chromatography (ionization flame detector column).
(§4) The newly discovered and isolated microorganism strains of the present invention were each grown aerobically in the presence of methane in the manner described above. The methane-grown microbial cells were then washed, recovered and put to use in oxidizing an oxidative substrate by the procedure described above except in the case of a liquid substrate 10 μl of the substrate were used.

[2] = system: Methylobacterium organophilum (CRL 26 R6) NRRL B-11,222; test: as above
Description: as §1, §2, §3, §4

[3] = system: Methylomonas methanica (CRL 21 PM7) NRRL B-11,206; test: as above; conditions: methane-grown cells; n-pentane to 2-pentanone, n-hexane to 2-hexanone
Description: as §1, §2, §3, §4

[4] = system: Methylobacter vinelandii (CRL M5Y) NRRL B-11,218; test: as above; conditions: methane-grown cells; n-pentane to 2-pentanone, n-hexane to 2-hexanone
Description: as §1, §2, §3, §4

[5] = system: Methylosinus trichosporium (CRL 15 PM1) NRRL B-11,202; test: as above
Description: as §1, §2, §3, §4

[6] = system: Methylosinus trichosporium OB3b (NRRL B-11,196); test: Oxidation by cell suspensions of methane-grown cells; conditions: growth substrate Methane; n-alkane to secondary alcohol
Description: as §1, §2, §3
(§5) The conditions for preparing the cell suspensions or the cell-free particulate fractions from methane-grown methylotroph microorganisms is the same as described above.

[7] = system: Methylococcus capsulatus (Texas, ATCC 19,069); test: as above; conditions: growth substrate Methane; n-alkane to secondary alcohol
Description: as §1, §2, §3, §5

[8] = methane-grown cells, n-pentane to 2-pentanone, n-hexane to 2-hexanone

Row | Compound | Conversion Rate [1, 8] [μmole/hr/mg protein] | Conversion Rate ([2]; growth substrate Methane, n-alkane to secondary alcohol) [μmoles/hr/^5 mg. protein] | Conversion Rate [2, 8] [μmole/hr/mg protein] | Conversion Rate [3] [μmole/hr/mg protein] | Conversion Rate [4] [μmole/hr/mg protein] | Conversion Rate [5, 8] [μmole/hr/mg protein] | Conversion Rate [6] [μmoles/hr/^5 mg. protein] | Conversion Rate [7] [μmoles/hr/^5 mg. protein] | Conversion Rate [1] | Conversion Rate [5]
1 | CCCCC [n-Pentane] | 0.15 | 0.01 | 0.18 | 0.06 | 0.04 | 0.08 | 0.06 | 0.032 |  | 
2 | CCCCCC [n-Hexane] |  |  |  | 0.01 | 0.01 |  | 0.01 | 0.01 | 0.08 | 0.04
